Reference: patent US20260226073A1 (AURIGENE ONCOLOGY LIMITED, priority 2023, published 2026)

Tests used:
[1] = biological target: T1, human recombinant CBL-b (human Biotin CBL-b recombinant protein a.a. 39-426) (Homo sapiens, UniProt Q13191); test: Biochemical assay for CBL-b inhibition (ligand displacement TR-FRET); type: binding; details: 50 nM CBL-b, 0.3 μM Bodipy FL-Probe, read-out: IC50 (CBL-b inhibition, group)
T1 construct: human Biotin CBL-b recombinant protein a.a; 39-426; Biotin (biotinylated); made in house
In short: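 Biotinylated CBL-b (a.a. 39-426, 50 nM final) pre-incubated with compound 60 min at RT in HEPES/NaCl/Triton/BSA/TCEP buffer, then Bodipy FL probe (0.3 μM final) 60 min, then terbium-streptavidin 60 min. TR-FRET read at 665/615 nm; IC50 and % max inhibition from sigmoidal fits.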

[2] = tested on: NFAT signaling pathway in Jurkat NFAT reporter cells; test: Jurkat NFAT reporter assay; type: cell-based; details: Homo sapiens, 30 min with compound, then soluble anti-human CD3/CD28 antibody for 6 hours, luciferase readout, read-out: EC50 (Group)
Method: A human T lymphocyte Jurkat reporter cell line was further used to assess activation of the nuclear factor of activated T-cells (NFAT) signaling pathway by Cbl-b inhibitors. The reporter cell line is a genetically engineered Jurkat T cell line that expresses a luciferase reporter driven by an NFAT-response element (NFAT-RE). The Cbl-b inhibitor was incubated with 1×10^5 Jurkat NFAT reporter cells per well for 30 minutes. Subsequently, cells were stimulated with soluble anti-human CD3/CD28 antibody for 6 hours resulting in NFAT-RE-mediated luminescence. The bioluminescent signal is detected and quantified using Bio-Glo™ Luciferase Assay System. Readouts were reported as fold change over baseline. Here, baseline was the measurement obtained from Jurkat NFAT reporter cells stimulated with anti-CD3 antibody and anti-CD28 antibody, where the cells were not incubated with a Cbl-b inhibitor.

T1 sequence (Q13191 39-426): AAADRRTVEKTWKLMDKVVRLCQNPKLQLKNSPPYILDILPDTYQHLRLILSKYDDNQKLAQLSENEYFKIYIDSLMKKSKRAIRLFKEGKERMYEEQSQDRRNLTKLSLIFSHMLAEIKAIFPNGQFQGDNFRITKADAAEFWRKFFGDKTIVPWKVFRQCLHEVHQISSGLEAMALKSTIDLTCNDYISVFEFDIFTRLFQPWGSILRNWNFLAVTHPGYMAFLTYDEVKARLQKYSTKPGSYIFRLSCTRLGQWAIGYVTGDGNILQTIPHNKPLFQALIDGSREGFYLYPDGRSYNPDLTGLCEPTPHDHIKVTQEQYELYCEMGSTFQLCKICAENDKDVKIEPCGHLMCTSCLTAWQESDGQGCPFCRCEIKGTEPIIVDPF

Structure (SMILES)	IC50 [1] [nM]	EC50 [2] [nM]
C[C@@H]1C[C@H](C)CN(Cc2cc(N3Cc4ccc([C@H](C)Cc5nncn5C)cc4C3=O)nc(C(F)(F)F)c2)C1 (single isomer, unassigned) [Compound 87]	80 to 300	300 to 1000
Cc1cc([C@H](C)NC2CCCC2)cc(N2Cc3ccc(-c4ccc(Cl)cc4-c4nncn4C)cc3C2=O)n1 (single isomer, unassigned) [Compound 125, 6-(4-Chloro-2-(4-methyl-4H-1,2,4-triazol-3-yl)phenyl)-2-(4-(1-(cyclopentyl-amino)ethyl)-6-methylpyridin-2-yl)isoindolin-1-one]	< 80	< 300
Cc1cc([C@@H](C)NC2CCCC2)cc(N2Cc3ccc(-c4ccc(Cl)cc4-c4nncn4C)cc3C2=O)n1 (single isomer, unassigned) [Compound 126, 6-(4-Chloro-2-(4-methyl-4H-1,2,4-triazol-3-yl)phenyl)-2-(4-(1-(cyclopentyl-amino)ethyl)-6-methylpyridin-2-yl)isoindolin-1-one]	< 80	< 300
C[C@@H](Cc1nncn1C)c1ccc2c(c1)C(=O)N(c1cc(CNCC3CC3)cc(Cl)n1)C2 (single isomer, unassigned) [Compound 160]	< 80	300 to 1000
C[C@H](Cc1nncn1C)c1ccc2c(c1)C(=O)N(c1cc(CNCC3CC3)cc(Cl)n1)C2 (single isomer, unassigned) [Compound 161]	< 80	300 to 1000
CC1CCC(C)N(Cc2cc(N3Cc4ccc(C5(Cc6nncn6C)COC5)cc4C3=O)nc(C(F)(F)F)c2)C1 (stereo not shown) [Compound 93, 2-(4-((2,5-Dimethylpiperidin-1-yl)methyl)-6-(trifluoromethyl)pyridin-2-yl)-6-(3-((4-methyl-4H-1,2,4-triazol-3-yl)methyl)oxetan-3-yl)isoindolin-1-one]	–	300 to 1000
CCC(NCc1cc(C)nc(N2Cc3ccc(-c4ccc(F)cc4-c4nncn4C)cc3C2=O)c1)C(=O)NC (stereo not shown) [Compound 327]	300 to 5000	–
Cc1cc(CN)cc(N2Cc3ccc(-c4ccc(F)cc4-c4nncn4C)cc3C2=O)n1 [Compound 331, 2-(4-(Aminomethyl)-6-methylpyridin-2-yl)-6-(4-fluoro-2-(4-methyl-4H-1,2,4triazol-3-yl)phenyl)isoindolin-1-one]	80 to 300	–
C=C(c1cc(C)nc(N2Cc3ccc(-c4ccc(F)cc4-c4nncn4C)cc3C2=O)c1)c1cnn(C)c1 [Compound 332, 6-(4-Fluoro-2-(4-methyl-4H-1,2,4-triazol-3-yl)phenyl)-2-(6-methyl-4-(1-(1-methyl-1H-pyrazol-4-yl)vinyl)pyridin-2-yl)isoindolin-1-one]	80 to 300	–
Cc1cc(C(C)c2cnn(C)c2)cc(N2Cc3ccc(-c4ccc(F)cc4-c4nncn4C)cc3C2=O)n1 (stereo not shown) [Compound 333, 6-(4-Fluoro-2-(4-methyl-4H-1,2,4-triazol-3-yl)phenyl)-2-(6-methyl-4-(1-(1-methyl-1H-pyrazol-4-yl)ethyl)pyridin-2-yl)isoindolin-1-one]	300 to 5000	–
Cc1cc(C(C)c2nccn2C)cc(N2Cc3ccc(-c4ccc(F)cc4-c4nncn4C)cc3C2=O)n1 (stereo not shown) [Compound 334, 6-(4-Fluoro-2-(4-methyl-4H-1,2,4-triazol-3-yl)phenyl)-2-(6-methyl-4-(1-(1-methyl-1H-imidazol-2-yl)ethyl)pyridin-2-yl)isoindolin-1-one]	300 to 5000	–
CN1CCC/C(=C/c2cc(Cl)nc(N3Cc4ccc(C5(Cc6nncn6C)COC5)cc4C3=O)c2)C1 [Compound 335, (Z)-2-(6-Chloro-4-((1-methylpiperidin-3-ylidene)methyl)pyridin-2-yl)-6-(3-((4-methyl-4H-1,2,4-triazol-3-yl)methyl)oxetan-3-yl)isoindolin-1-one]	80 to 300	–
Cc1cc(NCC2CCCN2)cc(N2Cc3ccc(C4(Cc5nncn5C)COC4)cc3C2=O)n1 (stereo not shown) [Compound 336, 2-(6-Methyl-4-((pyrrolidin-2-ylmethyl)amino)pyridin-2-yl)-6-(3-((4-methyl-4H-1,2,4-triazol-3-yl)methyl)oxetan-3-yl)isoindolin-1-one]	300 to 5000	–
Cc1cc(CNC(CC(C)(C)O)C2CC2)cc(N2Cc3ccc(-c4ccc(F)cc4-c4nncn4C)cc3C2=O)n1 (stereo not shown) [Compound 338, 2-(4-(((1-Cyclopropyl-3-hydroxy-3-methylbutyl)amino)methyl)-6-methylpyridin-2-yl)-6-(4-fluoro-2-(4-methyl-4H-1,2,4-triazol-3-yl)phenyl)isoindolin-1-one]	80 to 300	–
Cc1cc(CNCC2CCCCN2)cc(N2Cc3ccc(-c4ccc(F)cc4-c4nncn4C)cc3C2=O)n1 (stereo not shown) [Compound 339, 6-(4-Fluoro-2-(4-methyl-4H-1,2,4-triazol-3-yl)phenyl)-2-(6-methyl-4-(((piperidin-2-ylmethyl)amino)methyl)pyridin-2-yl)isoindolin-1-one]	300 to 5000	–
CN(CCC(F)(F)F)Cc1cc(Cl)nc(N2Cc3ccc(C4(Cc5nncn5C)COC4)cc3C2=O)c1 [Compound 340, 2-(6-Chloro-4-((methyl(3,3,3-trifluoropropyl)amino)methyl)-pyridin-2-yl)-6-(3-((4-methyl-4H-1,2,4-triazol-3-yl)methyl)oxetan-3-yl)isoindolin-1-one]	80 to 300	–

Continued, values first:

IC50 [1] [nM]	EC50 [2] [nM]	Structure (SMILES)
< 80	< 300	C[C@@H]1C[C@H](C)CN(Cc2cc(N3Cc4ccc([C@@H](C)Cc5nncn5C)cc4C3=O)nc(C(F)(F)F)c2)C1 (single isomer, unassigned) [Compound 86]
< 80	< 300	C[C@H]1CCCN(Cc2cc(Cl)nc(N3Cc4ccc([C@H](C)Cc5nncn5C)cc4C3=O)c2)C1 (single isomer, unassigned) [Compound 90]
< 80	< 300	C[C@H]1CCCN(Cc2cc(Cl)nc(N3Cc4ccc([C@@H](C)Cc5nncn5C)cc4C3=O)c2)C1 (single isomer, unassigned) [Compound 91]
< 80	< 300	CC(NC1CCCC1)c1cc(Cl)nc(N2Cc3ccc(-c4ccc(Cl)cc4-c4nncn4C)cc3C2=O)c1 (single isomer, unassigned) [Compound 104, 6-(4-Chloro-2-(4-methyl-4H-1,2,4-triazol-3-yl)phenyl)-2-(6-chloro-4-(1-(cyclo-pentylamino)ethyl)pyridin-2-yl)isoindolin-1-one]
< 80	< 300	C[C@H](NC1CCCC1)c1cc(Cl)nc(N2Cc3ccc(-c4ccc(Cl)cc4-c4nncn4C)cc3C2=O)c1 (single isomer, unassigned) [Compound 105, 6-(4-Chloro-2-(4-methyl-4H-1,2,4-triazol-3-yl)phenyl)-2-(6-chloro-4-(1-(cyclo-pentylamino)ethyl)pyridin-2-yl)isoindolin-1-one]
< 80	< 300	C[C@@H](NCc1cc(Cl)nc(N2Cc3ccc(-c4ccc(Cl)cc4-c4nncn4C)cc3C2=O)c1)C1CC1 (single isomer, unassigned) [Compound 108, 6-(4-Chloro-2-(4-methyl-4H-1,2,4-triazol-3-yl)phenyl)-2-(6-chloro-4-(((1-cyclo-propylethyl)amino)methyl)pyridin-2-yl)isoindolin-1-one]
< 80	< 300	C[C@H](NCc1cc(Cl)nc(N2Cc3ccc(-c4ccc(Cl)cc4-c4nncn4C)cc3C2=O)c1)C1CC1 (single isomer, unassigned) [Compound 109, 6-(4-Chloro-2-(4-methyl-4H-1,2,4-triazol-3-yl)phenyl)-2-(6-chloro-4-(((1-cyclo-propylethyl)amino)methyl)pyridin-2-yl)isoindolin-1-one]
< 80	< 300	C[C@@H](NCC1CC1)c1cc(Cl)nc(N2Cc3ccc(-c4ccc(Cl)cc4-c4nncn4C)cc3C2=O)c1 (single isomer, unassigned) [Compound 110, 6-(4-Chloro-2-(4-methyl-4H-1,2,4-triazol-3-yl)phenyl)-2-(6-chloro-4-(1-((cyclo-propylmethyl)amino)ethyl)pyridin-2-yl)isoindolin-1-one]
< 80	< 300	C[C@H](NCC1CC1)c1cc(Cl)nc(N2Cc3ccc(-c4ccc(Cl)cc4-c4nncn4C)cc3C2=O)c1 (single isomer, unassigned) [Compound 111, 6-(4-Chloro-2-(4-methyl-4H-1,2,4-triazol-3-yl)phenyl)-2-(6-chloro-4-(1-((cyclo-propylmethyl)amino)ethyl)pyridin-2-yl)isoindolin-1-one]
< 80	300 to 1000	Cn1cnnc1-c1cc(Cl)ccc1-c1ccc2c(c1)C(=O)N(c1cc(CNC[C@@H]3CCCO3)cc(Cl)n1)C2 (single isomer, unassigned) [Compound 123, 6-(4-Chloro-2-(4-methyl-4H-1,2,4-triazol-3-yl)phenyl)-2-(6-chloro-4-((((tetra-hydrofuran-2-yl)methyl)amino)methyl)pyridin-2-yl)isoindolin-1-one]
< 80	< 300	Cn1cnnc1-c1cc(Cl)ccc1-c1ccc2c(c1)C(=O)N(c1cc(CNC[C@H]3CCCO3)cc(Cl)n1)C2 (single isomer, unassigned) [Compound 124, 6-(4-Chloro-2-(4-methyl-4H-1,2,4-triazol-3-yl)phenyl)-2-(6-chloro-4-((((tetra-hydrofuran-2-yl)methyl)amino)methyl)pyridin-2-yl)isoindolin-1-one]
